In brackets after ≈: the same amount, converted by molar mass.
Columns and labels:
[1] = test system: M. tuberculosis standard strain Mtb H37Rv; assay: MIC determination against mycobacteria (resazurin, Middlebrook 7H9); assay type: cell-based, Mycobacterium tuberculosis; details: Mycobacterium tuberculosis, H37RV; read-out: Mtb H37Rv MIC (B)
E. coli K12 tolC::Tn10 = assay: General antimicrobial activity assay (CLSI broth microdilution); assay type: cell-based, Escherichia coli
Experimental: (§1) Whole-cell antimicrobial activity was determined by broth microdilution using the Clinical and Laboratory Standards Institute (CLSI) recommended procedure, Document M7-A7, “Methods for Dilution Susceptibility Tests for Bacteria that Grow Aerobically”.

E. coli K12 = assay: as above; assay type: cell-based, Escherichia coli
Experimental: as §1

A. baumannii ATCC 17978 = assay: as above; assay type: cell-based, Acinetobacter baumannii
Experimental: as §1

P. aeruginosa PA01 = assay: as above; assay type: cell-based, Pseudomonas aeruginosa
Experimental: as §1

Human cyto LeuRS = Human cyto LeuRS (Homo sapiens, UniProt Q9P2J5); assay: LeuRS aminoacylation assay, IC50 determination; assay type: biochemical
Human cyto LeuRS, sequence (Q9P2J5 whole entry): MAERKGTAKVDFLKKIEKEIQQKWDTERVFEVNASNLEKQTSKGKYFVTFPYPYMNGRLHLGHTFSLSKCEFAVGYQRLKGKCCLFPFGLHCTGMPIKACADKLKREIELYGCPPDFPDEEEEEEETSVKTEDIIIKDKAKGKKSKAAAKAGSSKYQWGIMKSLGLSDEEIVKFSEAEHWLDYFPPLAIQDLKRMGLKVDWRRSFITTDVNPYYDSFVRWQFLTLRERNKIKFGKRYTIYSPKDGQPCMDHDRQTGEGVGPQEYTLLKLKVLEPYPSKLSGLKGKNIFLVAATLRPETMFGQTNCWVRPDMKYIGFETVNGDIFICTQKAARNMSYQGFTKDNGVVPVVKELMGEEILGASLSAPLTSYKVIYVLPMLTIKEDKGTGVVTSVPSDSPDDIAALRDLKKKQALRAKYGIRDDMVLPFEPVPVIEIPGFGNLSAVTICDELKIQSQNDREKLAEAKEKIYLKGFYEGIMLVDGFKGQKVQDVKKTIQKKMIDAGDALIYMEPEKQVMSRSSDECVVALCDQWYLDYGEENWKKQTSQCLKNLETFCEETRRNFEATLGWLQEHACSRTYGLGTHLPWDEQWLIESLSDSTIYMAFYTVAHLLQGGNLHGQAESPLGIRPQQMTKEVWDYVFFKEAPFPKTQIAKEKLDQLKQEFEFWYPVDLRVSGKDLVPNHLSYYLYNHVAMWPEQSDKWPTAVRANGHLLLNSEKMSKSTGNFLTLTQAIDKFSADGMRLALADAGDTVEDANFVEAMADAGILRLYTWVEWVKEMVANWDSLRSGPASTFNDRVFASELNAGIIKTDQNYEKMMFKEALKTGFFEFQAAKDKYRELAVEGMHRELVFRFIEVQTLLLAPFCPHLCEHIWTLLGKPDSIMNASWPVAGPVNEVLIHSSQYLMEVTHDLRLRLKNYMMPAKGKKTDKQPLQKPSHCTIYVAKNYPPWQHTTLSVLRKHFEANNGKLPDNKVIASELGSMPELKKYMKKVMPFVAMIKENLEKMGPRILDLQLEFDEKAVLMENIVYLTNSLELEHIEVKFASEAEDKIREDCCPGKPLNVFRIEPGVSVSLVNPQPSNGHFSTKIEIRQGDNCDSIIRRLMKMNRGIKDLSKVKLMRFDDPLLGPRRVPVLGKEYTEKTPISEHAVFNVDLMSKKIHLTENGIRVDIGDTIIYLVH

## CCOc1ccc(Cl)c2c1B(O)O[C@@H]2CN [Example C6-Cl, reference compound]
[1]
  MIC: 0.1 µM (≈ 0.0241 µg/mL)
E. coli K12 tolC::Tn10
  MIC: E. coli K12 tolC::Tn10: 64 µg/mL (≈ 265 µM)
E. coli K12
  MIC: E. coli K12: 64 µg/mL (≈ 265 µM)
A. baumannii ATCC 17978
  MIC: A. baumannii ATCC 17978: 64 µg/mL (≈ 265 µM)
P. aeruginosa PA01
  MIC: P. aeruginosa PA01: 64 µg/mL (≈ 265 µM)
Human cyto LeuRS
  IC50: 38.8 µM
HepG2 cells
  Selectivity Index (A/B): 363
HepG2 cells; 48 h
  HepG2 cell 48 h Tox50 (A): 36.3 µM

Source: US10526352B2, “Tricyclic benzoxaborole compounds and uses thereof” (GlaxoSmithKline Intellectual Property (No.2) Limited, priority 2013, dated 2020)
